Results as given in patent US20190054087A1, “TREATMENT OF SMALL CELL LUNG CANCER WITH A PARP INHIBITOR” (priority 2015, published 2019).
Read-outs that look alike come from different tables or passages of the source.

Experiments:
[1] = system: NCI-H1048 SCLC xenograft; test: Cell line-derived xenograft model NCI-H1048; format: in vivo, BALB/c nude mice; details: 0.33 mg/kg, Q1D×28 p.o.
Procedure: (§1) Human NCI-H1048, NCI-H209, and NCI-H69 SCLC tumor cells were injected subcutaneously in the flanks of BALB/c nude mice. When tumors reached approximately 130 mm^3 average volume, animals (n=8 per group) were treated with vehicle (Q1D×28, p.o.), cisplatin (6 mg/kg, Q6D×2 i.p.), or talazoparib (0.33 mg/kg, Q1D×28 p.o.). Tumor growth and animal body weight were monitored twice per week by standard methods.

[2] = system: LXFS 650 SCLC PDX tumor; test: Human SCLC PDX model LXFS 650; format: in vivo, immunocompromised mice; details: D 21, MTD 0.25-0.3 mg/kg once daily oral, median tumor volume (n = 5)
Procedure: (§2) Twelve human SCLC PDX models (obtained from Crown Biosciences, OncoTest, WuxiAppTec) were evaluated for their responses to talazoparib single agent treatment. PDX tumors were propagated subcutaneously in immunocompromised mice at passage 3 to 13. When tumors reached approximately 150 mm^3 average volume, animals (n=5 per group) were administered orally with vehicle (once daily dose), or talazoparib at the maximum tolerated dose (MTD; 0.25-0.3 mg/kg, once daily). Tumor volume and animal body weight were measured twice weekly until the end of study or until tumor size exceeded 2000 mm^3. Untreated tumor samples were collected from mice. Median tumor volume on Day 21 and beyond after first treatment was used to calculate the change from baseline to evaluate response.

[3] = system: CTG-0199 SCLC PDX tumor; test: Human SCLC PDX model CTG-0199; format: in vivo, immunocompromised mice; details: D 21, MTD 0.25-0.3 mg/kg once daily oral, median tumor volume (n = 5)
Procedure: as §2

[4] = system: LU-01-0547 SCLC PDX tumor; test: Human SCLC PDX model LU-01-0547; format: in vivo, immunocompromised mice; details: D 83, MTD 0.25-0.3 mg/kg once daily oral, median tumor volume (n = 5)
Procedure: as §2

[5] = system: LU67 SCLC PDX tumor; test: Human SCLC PDX model LU67; format: in vivo, immunocompromised mice; details: D 25, MTD 0.25-0.3 mg/kg once daily oral, median tumor volume (n = 5)
Procedure: as §2

[6] = system: LU2514 SCLC PDX tumor; test: Human SCLC PDX model LU2514; format: in vivo, immunocompromised mice; details: D 21, MTD 0.25-0.3 mg/kg once daily oral, median tumor volume (n = 5)
Procedure: as §2

[7] = system: LXFS 573 SCLC PDX tumor; test: Human SCLC PDX model LXFS 573; format: in vivo, immunocompromised mice; details: D 21, MTD 0.25-0.3 mg/kg once daily oral, median tumor volume (n = 5)
Procedure: as §2

[8] = system: NCI-H209 SCLC xenograft; test: Cell line-derived xenograft model NCI-H209; format: in vivo, BALB/c nude mice; details: 0.33 mg/kg, Q1D×28 p.o.
Procedure: as §1

[9] = system: LU65 SCLC PDX tumor; test: Human SCLC PDX model LU65; format: in vivo, immunocompromised mice; details: D 21, MTD 0.25-0.3 mg/kg once daily oral, median tumor volume (n = 5)
Procedure: as §2

[10] = system: 38 SCLC cell lines; test: Cell line cytotoxicity assay (CellTiter Glo), panel of 38 SCLC cell lines; format: cell-based; details: Homo sapiens, 38 SCLC lines, 5 or 7 days incubation, generational method
Procedure: Various SCLC cell lines (38) were obtained from ATCC (American Type Culture Collection), ECACC (European Collection of Cell Cultures), JCRB (Japanese Collection of Research Bioresources), and CLS Cell Lines Service as shown in Table 1. […] After 24 h, talazoparib at 2000, 400, 80, 16, 3.2, or 0.64 nM in 0.2% DMSO, or cisplatin at 100,000, 2000, 400, 80, 16, or 3.2 nM were added in duplicate, and incubated for an additional 5 or 7 days. Cell survival was determined by CellTiter Glo assay (Promega). Cell growth inhibition was calculated by two methods: (a) the treated cell counts relative to untreated control to obtain IC50 (convention survival fraction method), or (b) doublings from baseline under treatment relative to doublings from baseline without treatment to obtain GI50 (generational method), using GraphPad Prism5. Maximum inhibition levels for each method were also obtained.

[11] = system: Twelve human SCLC PDX models; test: Twelve human SCLC PDX models, response classification; format: in vivo, immunocompromised mice; details: 12 SCLC PDX models; talazoparib at maximum tolerated dose
Procedure: as §2
Twelve human SCLC PDX models were further tested with talazoparib at maximum tolerated doses compared to a vehicle control.

[12] = system: LXFS 1129 SCLC PDX tumor; test: Human SCLC PDX model LXFS 1129; format: in vivo, immunocompromised mice; details: D 21, MTD 0.25-0.3 mg/kg once daily oral, median tumor volume (n = 5)
Procedure: as §2

[13] = system: LU1267 SCLC PDX tumor; test: Human SCLC PDX model LU1267; format: in vivo, immunocompromised mice; details: D 38, MTD 0.25-0.3 mg/kg once daily oral, median tumor volume (n = 5)
Procedure: as §2

[14] = system: LXFS 615 SCLC PDX tumor; test: Human SCLC PDX model LXFS 615; format: in vivo, immunocompromised mice; details: D 21, MTD 0.25-0.3 mg/kg once daily oral, median tumor volume (n = 5)
Procedure: as §2

[15] = system: CTG-0198 SCLC PDX tumor; test: Human SCLC PDX model CTG-0198; format: in vivo, immunocompromised mice; details: D 29, MTD 0.25-0.3 mg/kg once daily oral, median tumor volume (n = 5)
Procedure: as §2

[16] = system: NCI-H209 SCLC cell line; test: Cell line cytotoxicity assay (CellTiter Glo), NCI-H209; format: cell-based; details: Homo sapiens, SLFN11 RMA 8.794, read-out: BMN 673 Sensitivity In vitro GI50
Procedure: (§3) After 24 h, talazoparib at 2000, 400, 80, 16, 3.2, or 0.64 nM in 0.2% DMSO, or cisplatin at 100,000, 2000, 400, 80, 16, or 3.2 nM were added in duplicate, and incubated for an additional 5 or 7 days. Cell survival was determined by CellTiter Glo assay (Promega). Cell growth inhibition was calculated by two methods: (a) the treated cell counts relative to untreated control to obtain IC50 (convention survival fraction method), or (b) doublings from baseline under treatment relative to doublings from baseline without treatment to obtain GI50 (generational method), using GraphPad Prism5. Maximum inhibition levels for each method were also obtained.

[17] = system: LXFS 2156 SCLC PDX tumor; test: Human SCLC PDX model LXFS 2156; format: in vivo, immunocompromised mice; details: D 21, MTD 0.25-0.3 mg/kg once daily oral, median tumor volume (n = 5)
Procedure: as §2

[18] = system: NCI-H69 SCLC xenograft; test: Cell line-derived xenograft model NCI-H69; format: in vivo, BALB/c nude mice; details: 0.33 mg/kg, Q1D×28 p.o.
Procedure: as §1

[19] = system: NCI-H1048 SCLC cell line; test: Cell line cytotoxicity assay (CellTiter Glo), NCI-H1048; format: cell-based; details: Homo sapiens, SLFN11 RMA 7.583, read-out: BMN 673 Sensitivity In vitro GI50
Procedure: as §3

[20] = system: NCI-H69 SCLC cell line; test: Cell line cytotoxicity assay (CellTiter Glo), NCI-H69; format: cell-based; details: Homo sapiens, SLFN11 RMA 3.981, read-out: BMN 673 Sensitivity In vitro GI50
Procedure: as §3

## Cn1ncnc1[C@H]1c2n[nH]c(=O)c3cc(F)cc(c23)N[C@@H]1c1ccc(F)cc1 [talazoparib]
[1]
  BMN 673 Sensitivity In vivo Tumor growth: much more sensitive to talazoparib than the H69 model
[1]; listed as BMN 673, 0.33 mg/kg
  BMN 673 Sensitivity In vivo Tumor growth: Delay
[2]
  Best response: Change from base line (%): 314%
[3]
  Best response: Change from base line (%): 318%
[4]
  Best response: Change from base line (%): −95%
[5]
  Best response: Change from base line (%): −29%
[6]
  Best response: Change from base line (%): 262%
[7]
  Best response: Change from base line (%): 351%
[8]
  BMN 673 Sensitivity In vivo Tumor growth: much more sensitive to talazoparib than the H69 model
[8]; listed as BMN 673, 0.33 mg/kg
  BMN 673 Sensitivity In vivo Tumor growth: Delay
[9]
  Best response: Change from base line (%): 17%
[10]; read-out: GI50 range across the 38 SCLC lines
  GI50: ≥ 2 nM
[10]; read-out: median GI50 across the 38 SCLC lines
  GI50: 56 nM
[11]
  PDX models designated as progressive disease (PD): remaining PDX models were resistant
  PDX models with 30% or more tumor regression compared to baseline (partial responders, PR): Three of the 12
  PDX tumors with stable disease (SD)-like responses, tumor growth less than 100% on Day 21 or beyond: three of the 12
[12]
  Best response: Change from base line (%): 260%
[13]
  Best response: Change from base line (%): −30%
[14]
  Best response: Change from base line (%): 83%
[15]
  Best response: Change from base line (%): −55%
[16]
  GI50: 2.03 nM
[17]
  Best response: Change from base line (%): 615%
[18]
  BMN 673 Sensitivity In vivo Tumor growth: No delay
[19]
  GI50: 14.4 nM
[20]
  GI50: 190 nM
